For this assay, the target named is T1, POLγA:Y955C (Homo sapiens, UniProt P54098, Y955C).
T1 sequence (P54098 1-1239 Y955C): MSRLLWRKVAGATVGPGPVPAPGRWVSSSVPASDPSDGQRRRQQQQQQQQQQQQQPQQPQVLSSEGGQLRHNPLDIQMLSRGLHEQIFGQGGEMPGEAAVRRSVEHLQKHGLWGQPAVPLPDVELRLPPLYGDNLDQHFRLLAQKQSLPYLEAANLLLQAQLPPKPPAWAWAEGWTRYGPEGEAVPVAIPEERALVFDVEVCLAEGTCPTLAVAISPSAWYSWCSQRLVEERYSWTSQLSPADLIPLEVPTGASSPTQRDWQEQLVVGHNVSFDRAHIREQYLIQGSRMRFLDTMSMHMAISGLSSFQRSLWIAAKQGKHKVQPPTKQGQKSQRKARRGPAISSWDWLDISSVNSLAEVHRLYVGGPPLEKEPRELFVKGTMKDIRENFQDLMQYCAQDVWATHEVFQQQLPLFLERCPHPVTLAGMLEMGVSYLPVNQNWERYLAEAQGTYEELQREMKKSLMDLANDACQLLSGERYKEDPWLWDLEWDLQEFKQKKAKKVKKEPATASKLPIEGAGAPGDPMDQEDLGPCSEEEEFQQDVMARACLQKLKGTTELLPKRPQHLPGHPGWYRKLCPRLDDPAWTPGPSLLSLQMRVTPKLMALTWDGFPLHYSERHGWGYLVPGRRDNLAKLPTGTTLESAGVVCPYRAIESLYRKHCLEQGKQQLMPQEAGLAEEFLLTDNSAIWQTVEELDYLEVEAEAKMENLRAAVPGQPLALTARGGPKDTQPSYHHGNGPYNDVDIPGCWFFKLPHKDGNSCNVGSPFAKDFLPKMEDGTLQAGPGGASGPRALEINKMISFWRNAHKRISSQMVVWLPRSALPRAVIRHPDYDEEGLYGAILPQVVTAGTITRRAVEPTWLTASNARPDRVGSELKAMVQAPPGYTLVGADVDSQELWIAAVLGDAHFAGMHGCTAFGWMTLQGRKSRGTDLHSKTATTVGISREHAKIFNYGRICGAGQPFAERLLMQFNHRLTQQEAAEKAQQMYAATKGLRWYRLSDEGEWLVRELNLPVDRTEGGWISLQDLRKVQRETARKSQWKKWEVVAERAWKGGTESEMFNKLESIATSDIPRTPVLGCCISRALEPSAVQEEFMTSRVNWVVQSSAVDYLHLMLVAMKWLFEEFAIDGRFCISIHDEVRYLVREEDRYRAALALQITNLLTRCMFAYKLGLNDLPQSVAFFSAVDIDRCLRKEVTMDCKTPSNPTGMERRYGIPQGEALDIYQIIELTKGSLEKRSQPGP
T1 sequence (Q9UHN1 1-485 partner): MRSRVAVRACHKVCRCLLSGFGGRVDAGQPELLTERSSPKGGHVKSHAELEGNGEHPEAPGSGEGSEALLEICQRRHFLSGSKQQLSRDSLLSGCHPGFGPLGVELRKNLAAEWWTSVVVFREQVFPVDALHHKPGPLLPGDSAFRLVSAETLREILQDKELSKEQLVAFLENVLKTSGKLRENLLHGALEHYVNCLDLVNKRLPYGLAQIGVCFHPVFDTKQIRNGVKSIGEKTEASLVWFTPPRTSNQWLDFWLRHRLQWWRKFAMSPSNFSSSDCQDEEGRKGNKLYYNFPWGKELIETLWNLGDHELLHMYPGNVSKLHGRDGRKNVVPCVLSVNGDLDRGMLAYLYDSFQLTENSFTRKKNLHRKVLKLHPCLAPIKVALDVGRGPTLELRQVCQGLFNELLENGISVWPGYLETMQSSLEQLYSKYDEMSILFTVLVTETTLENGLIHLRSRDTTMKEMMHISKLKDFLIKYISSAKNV
The experiment in a line: DNA polymerization assay, POLγA:Y955C mutant. It is filed as biochemical. The settings on record: stimulation of polymerase activity, primed M13mp18 ssDNA, 37° C. 2 hours. Here is the method: DNA Polymerization Assay to Monitor Effects on Human Wildtype POLγ and Four Disease-Causing Mutant Variants of Human POLγ.
The ability of small molecules to stimulate the polymerase activity of POLγ was analyzed in a quantitative fluorescence SYBR Green I assay with fluorescence intensity (FI) readout.
In the presence of dNTPs, wild type human POLγ and mutant derivatives thereof were incubated with single-stranded, circular M13mp18 ssDNA hybridized to a short DNA oligonucleotide that functions as a primer for initiation of DNA synthesis. POLγ and mutant derivatives thereof will extend the primer and use the M13mp18 molecule as a template to synthesize long stretches of double-stranded DNA. SYBR Green I, which is a double-stranded DNA-binding dye, was used to quantify formation of double-stranded DNA in the reaction. When bound to double-stranded DNA, SYBR Green I fluorescence increases by up to 100-fold.
The assay was performed in the 384-well plate format. Upon addition of compounds, changes in double-stranded DNA synthesis activity can be monitored by following effects on fluorescent intensity.
The reactions also contained the accessory POLγB subunit, and the human mitochondrial single-stranded DNA binding protein (mtSSB).
The DNA template mixture used in the assay contained 0.5 nM primed M13 mp18 ssDNA, 400 nM mtSSB, 0.1 mM Tris-HCl (pH 8.0), 0.1 mM dNTP, 10 mM MgCl2, 0.1 mg/mL BSA, 1 mM TCEP solution, and 0.02% Triton X-100. The DNA template mixture for the wild type protein contained either 100 μM dNTP, 1 μM dNTP, or 0.1 μM dNTP, designated in Table 2 as 100 μM, 1 μM, and 0.1 μM, respectfully.
Microplates with compounds (0.1 μL in each well) to be tested in the assay were prepared from 10 mM compound stocks in 100% DMSO, and equal amounts of DMSO without any compound were added to positive and negative control wells.
The protein mixture was dispensed (5 μL into each well) into compound plates and incubated at 37° C. for 15 minutes. After incubation, 5 μL of the DNA template mixture was dispensed into each well. The plates were then incubated at 37° C. for 2 hours.
During incubation, a combined stop buffer and detection reagent solution was prepared. The buffer contained 25 mM EDTA (pH 8.0), 0.02% Triton X-100, and SYBR Green I [Invitrogen] diluted 10,000× (for fluorescent readout). EDTA will stop the enzymatic reaction by chelating magnesium ions.
Usually AC50 stands for the midpoint of the concentration-response curve, whichever way the signal moves. Read a low AC50 as greater potency. `Cc1cc(S(=O)(=O)Nc2cccc(-c3ncc(CO)s3)c2)c(C)cc1Cl` [Example 89, 4-chloro-N-(3-(5-(hydroxymethyl)thiazol-2-yl)phenyl)-2,5-dimethylbenzenesulfonamide] gave an AC50 of 100 nM.

The molecule `Cc1cc(S(=O)(=O)Nc2csc(-c3ccccc3)n2)c(C)cc1Cl` [Example 81, 4-chloro-2,5-dimethyl-N-(2-phenylthiazol-4-yl)benzenesulfonamide] came in with an AC50 of 200 nM.

Take `Cc1nc2ccc(NS(=O)(=O)c3cc(C)c(Cl)cc3C)cc2s1` [Example 73, 4-chloro-2,5-dimethyl-N-(2-methylbenzo[d]thiazol-6-yl)benzenesulfonamide]: the AC50 was 800 nM.

With `Cc1csc(-c2ccccc2NS(=O)(=O)c2cc(C)c(Cl)cc2C)n1` [Example 80, 4-chloro-2,5-dimethyl-N-(2-(4-methylthiazol-2-yl)phenyl)benzenesulfonamide], the AC50 was > 100000 nM.

For the molecule `Cc1cc(S(=O)(=O)Nc2cccc(-c3ncc(CN(C)C)s3)c2)c(C)cc1Cl` [Example 87, 4-chloro-N-(3-(5-((dimethylamino)methyl)thiazol-2-yl)phenyl)-2,5-dimethylbenzenesulfonamide], the AC50 stood at 6000 nM.

In the case of `Cc1cc(S(=O)(=O)Nc2ccc3ccn(C)c3c2)c(C)cc1Cl` [Example 72, 4-chloro-2,5-dimethyl-N-(1-methyl-1H-indol-6-yl)benzenesulfonamide], the AC50 worked out at 6000 nM.

`Cc1cc(S(=O)(=O)Nc2cccc(-c3ncc(C4CC4)s3)c2)c(C)cc1Cl` [Example 76, 4-chloro-N-(3-(5-cyclopropylthiazol-2-yl)phenyl)-2,5-dimethylbenzenesulfonamide] showed an AC50 of 2000 nM.
